# Literature values as cited in patent US6366801B1, “Pharmaceutically enhanced low-energy radiosurgery” (Sirius Medicine, LLC, priority 1997, dated 2002).
# Key:
# cells in vitro = conditions: iodine concentration of 50 mg/ml, cells in vitro (Dawson et al.)
# brain tumors = conditions: low-energy x-rays and iodine, brain tumors in rabbits (Iwamoto et al.)
# lymphocytes = conditions: iodine with low-energy photons, lymphocytes (Santos Mello et al.)
smiles,measurement,setting,value
II [iodine],effect on radiation damage to cells,cells in vitro,radiation enhancement of cell damage
same,dose enhancement,brain tumors,about 30%
same,dose enhancement,lymphocytes,up to 3
